Measurements as given in patent US20090035306A1 (KALYPSYS, INC., priority 2006, published 2009).

Each compound was assayed against T1, human TGR5 (Homo sapiens, UniProt Q8TDU6) (assay: cAMP production assay in HEK293 cells stably expressing TGR5 (LANCE TR-FRET)). Conditions: 30 minutes stimulation, read-out: cAMP Production in 293-TGR5 Cells EC50.
T1 construct: expressed in transfected cells
T1 sequence (Q8TDU6 1-330): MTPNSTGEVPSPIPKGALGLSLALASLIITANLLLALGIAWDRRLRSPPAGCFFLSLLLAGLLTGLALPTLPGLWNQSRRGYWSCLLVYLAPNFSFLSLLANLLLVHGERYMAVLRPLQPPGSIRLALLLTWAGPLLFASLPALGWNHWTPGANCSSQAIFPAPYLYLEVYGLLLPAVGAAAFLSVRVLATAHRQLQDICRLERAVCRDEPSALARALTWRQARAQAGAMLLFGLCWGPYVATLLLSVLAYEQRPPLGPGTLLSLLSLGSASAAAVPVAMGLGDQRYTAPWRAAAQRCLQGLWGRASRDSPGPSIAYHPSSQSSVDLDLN
Format: cell-based
Method: HEK293 cells stably expressing TGR5 (HEK293-TGR5) were established by stably transfecting HEK-293 cells with an expression vector (pcDNA 3.1, Invetrogen) inserted with human TGR5 cDNA using Fugene6 (Roche, Indianapolis, Ind.) according to conventional methods. Cells were grown in DMEM (invitrogen, Carlsbad, Calif.) supplemented with 10% FBS, 1% penicillin/streptomycin under geneticin selection. The presence of TGR5 transcripts in these cells was confirmed using branched DNA (bDNA, Genospectra, Inc., Fremont Calif.) following the manufacturer's protocol and using specific probes for human TGR5. cAMP production assay was performed in high throughput 1536 well format using LANCE cAMP detection kit (Perkin Elmer Inc., Boston, Mass.) according to the manufacturer's protocol. Briefly, HEK293-TGR5 cells were harvested using non-enzymatic cell dissociation buffer (Invitrogen, Carlsbad, Calif.) and suspended in DMEM supplemented with 0.1% FBS at a density of 800,000 cells/ml. Alexa antibody was added to the cell suspension, and 4 ul of the mixture was dispensed in white opaque tissue culture treated Greiner 1536 well plates (USA Scientific, Inc., Ocala, Fla.). After an overnight incubation at 37 C in an atmosphere of 10% CO2 and 95% humidity, 1 ul of 5 mM IBMX (Sigma, St. Louis, Mo.) solution in DMEM was dispensed for a final concentration of 1 mM. Cells were then stimulated with test compounds for 30 minutes, after which time 5 ul of detection reagent was added and incubated for 1-7 hrs at room temperature. TR-FRET signal was detected using the Viewlux (Perkin Elmer Inc., Boston Mass.). EC50 values were determined using Graph Pad Prizm analysis (GraphPad Software, Inc). The EC50 values for a wide range of bile acids generated from this assay were in agreement with the values published in the scientific literature. […] The symbol (+) denotes an EC50 value of ≦10 μM while the symbol (−) denotes an EC50 value of >10 μM (see Table 1).

EC50	SMILES
≤ 10 µM	O=c1c2ccccc2nc(C2CCCCC2)n1NCc1ccc(Br)cc1 [Example 44, 3-(4-bromobenzylamino)-2-cyclohexylquinazolin-4(3H)-one]
≤ 10 µM	Cc1ccc2c(=O)n(NCc3ccc(Br)cc3)c(-c3ccccc3F)nc2c1 [Example 24, 3-(4-bromobenzylamino)-2-(2-fluorophenyl)-7-methylquinazolin-4(3H)-one]
≤ 10 µM	O=c1c2ccccc2nc(-c2cccc(Cl)c2)n1NCc1ccc(Cl)cc1 [Example 48, 3-(4-chlorobenzylamino)-2-(3-chlorophenyl)quinazolin-4(3H)-one]
> 10 µM	COc1ccc2c(=O)n(NCc3ccc(C(F)(F)F)cc3)c(-c3ccc(F)cc3)nc2c1 [Example 36, 2-(4-fluorophenyl)-7-methoxy-3-(4-(trifluoromethyl)benzylamino)quinazolin-4(3H)-one]
≤ 10 µM	COc1cc(-c2nc3ccccc3c(=O)n2NCc2ccc(Br)cc2)ccc1F [Example 72, 3-(4-bromobenzylamino)-2-(4-fluoro-3-methoxyphenyl)quinazolin-4(3H)-one]
≤ 10 µM	O=c1c2cc(O)ccc2nc(-c2ccc(F)cc2)n1NCc1ccc(Cl)cc1 [Example 98, 3-(4-chlorobenzylamino)-2-(4-fluorophenyl)-6-hydroxyquinazolin-4(3H)-one]
≤ 10 µM	O=c1c2ccc(F)cc2nc(-c2ccc(F)cc2)n1NCc1ccc(Cl)cc1 [Example 108, 3-(4-chlorobenzylamino)-7-fluoro-2-(4-fluorophenyl)quinazolin-4(3H)-one]
≤ 10 µM	O=c1c2ccccc2nc(-c2ccc(Cl)cc2)n1NCc1ccc(Br)cc1 [Example 47, 3-(4-bromobenzylamino)-2-(4-chlorophenyl)quinazolin-4(3H)-one]
≤ 10 µM	Cc1ccc2c(=O)n(NCc3ccc(Br)cc3)c(-c3ccc(F)cc3)nc2c1 [Example 81, 3-(4-bromobenzylamino)-2-(4-fluorophenyl)-7-methylquinazolin-4(3H)-one]
≤ 10 µM	Cc1cc(-c2nc3ccccc3c(=O)n2NCc2ccc(Cl)cc2)ccc1F [Example 57, 3-(4-chlorobenzylamino)-2-(4-fluoro-3-methylphenyl)quinazolin-4(3H)-one]
≤ 10 µM	COc1ccc(-c2nc3ccccc3c(=O)n2NCc2ccc(Cl)cc2)cc1O [Example 119, 3-(4-chlorobenzylamino)-2-(3-hydroxy-4-methoxyphenyl)quinazolin-4(3H)— one]
≤ 10 µM	O=c1c2ccccc2nc(C2CCCCC2)n1NCc1ccc(Cl)cc1 [Example 45, 3-(4-chlorobenzylamino)-2-cyclohexylquinazolin-4(3H)-one]
> 10 µM	CN(C)c1ccc(-c2nc3ccccc3c(=O)n2NCc2ccc(Br)cc2)cc1 [Example 42, 3-(4-bromobenzylamino)-2-(4-(dimethylamino)phenyl)quinazolin-4(3H)-one]
≤ 10 µM	O=c1c2ccccc2nc(-c2ccccc2F)n1NCc1cccc(C(F)(F)F)c1 [Example 20, 2-(2-fluorophenyl)-3-(3-(trifluoromethyl)benzylamino)quinazolin-4(3H)-one]
≤ 10 µM	O=c1c2ccccc2nc(-c2ccc(O)cc2)n1NCc1ccc(Br)cc1 [Example 97, 3-(4-bromobenzylamino)-2-(4-hydroxyphenyl)quinazolin-4(3H)-one]
≤ 10 µM	O=c1c2ccccc2nc(-c2ccccc2)n1NCc1ccccc1 [Example 6, 3-(benzylamino)-2-phenylquinazolin-4(3H)-one]
≤ 10 µM	O=c1c2ccccc2nc(-c2ccccc2F)n1NCc1cc(F)cc(F)c1 [Example 13, 3-(3,5-difluorobenzylamino)-2-(2-fluorophenyl)quinazolin-4(3H)-one]

EC50	SMILES
≤ 10 µM	O=c1c2ccccc2nc(-c2cccc(F)c2)n1NCc1ccc(F)cc1F [Example 7, 3-(2,4-difluorobenzylamino)-2-(3-fluorophenyl)quinazolin-4(3H)-one]
≤ 10 µM	O=c1c2ccccc2nc(-c2ccccc2F)n1NCc1ccc(Br)cc1 [Example 5, 3-(4-bromobenzylamino)-2-(2-fluorophenyl)quinazolin-4(3H)-one]
≤ 10 µM	O=c1c2ccccc2nc(-c2ccccc2F)n1NCc1ccc(F)cc1F [Example 12, 3-(2,4-difluorobenzylamino)-2-(2-fluorophenyl)quinazolin-4(3H)-one]
≤ 10 µM	O=c1c2ccccc2nc(-c2ccccc2F)n1NCc1cccc(Br)c1 [Example 3, 3-(3-bromobenzylamino)-2-(2-fluorophenyl)quinazolin-4(3H)-one]
≤ 10 µM	COc1cc(-c2nc3ccccc3c(=O)n2NCc2ccc(Cl)cc2)ccc1F [Example 73, 3-(4-chlorobenzylamino)-2-(4-fluoro-3-methoxyphenyl)quinazolin-4(3H)-one]
≤ 10 µM	CN(C)c1ccc(-c2nc3ccccc3c(=O)n2NCc2ccc(Cl)cc2)cc1 [Example 43, 3-(4-chlorobenzylamino)-2-(4-(dimethylamino)phenyl)quinazolin-4(3H)-one]
≤ 10 µM	COc1cc(OC)cc(-c2nc3ccccc3c(=O)n2NCc2ccc(Cl)cc2)c1 [Example 59, 3-(4-chlorobenzylamino)-2-(3,5-dimethoxyphenyl)quinazolin-4(3H)-one]
≤ 10 µM	COc1cc(-c2nc3ccccc3c(=O)n2NCc2ccc(Cl)cc2)ccc1O [Example 100, 3-(4-chlorobenzylamino)-2-(4-hydroxy-3-methoxyphenyl)quinazolin-4(3H)-one]
> 10 µM	O=c1c2ccccc2nc(-c2ccc(F)cc2)n1NCCc1cccc(Br)c1 [Example 84, 3-(3-bromophenethylamino)-2-(4-fluorophenyl)quinazolin-4(3H)-one]
≤ 10 µM	O=c1c2ccccc2nc(-c2ccco2)n1N(Cc1ccc(Br)cc1)Cc1ccc(Br)cc1 [Example 41, 3-(bis(4-bromobenzyl)amino)-2-(furan-2-yl)quinazolin-4(3H)-one]
≤ 10 µM	Cc1cc(-c2nc3ccccc3c(=O)n2NCc2ccc(Br)cc2)ccc1F [Example 54, 3-(4-bromobenzylamino)-2-(4-fluoro-3-methylphenyl)quinazolin-4(3H)-one]
≤ 10 µM	O=c1c2ccccc2nc(-c2cccs2)n1N(Cc1ccc(C(F)(F)F)cc1)Cc1ccc(C(F)(F)F)cc1 [Example 88, 3-(bis(4-(trifluoromethyl)benzyl)amino)-2-(thiophen-2-yl)quinazolin-4(3H)-one]
≤ 10 µM	O=c1c2ccccc2nc(-c2cccc(OC(F)(F)F)c2)n1NCc1ccc(Br)cc1 [Example 60, 3-(4-bromobenzylamino)-2-(3-(trifluoromethoxy)phenyl)quinazolin-4(3H)-one]
≤ 10 µM	O=c1c2ccccc2nc(-c2ccc(Cl)cc2)n1NCc1ccc(F)c(F)c1 [Example 53, 2-(4-chlorophenyl)-3-(3,4-difluorobenzylamino)quinazolin-4(3H)-one]
≤ 10 µM	CCCN(Cc1ccc(Br)cc1)n1c(-c2ccc(F)cc2)nc2ccccc2c1=O [Example 94, 3-((4-bromobenzyl)(propyl)amino)-2-(4-fluorophenyl)quinazolin-4(3H)-one]
≤ 10 µM	Cc1ccc(-c2nc3ccccc3c(=O)n2NCc2ccc(Br)cc2)cc1Cl [Example 109, 3-(4-bromobenzylamino)-2-(3-chloro-4-methylphenyl)quinazolin-4(3H)-one]
